According to ChEMBL document CHEMBL1133843, “3-Aryl-4-aryloyl-1-(1H-imidazol-5-yl)methylpyrrole, a novel class of farnesyltransferase inhibitors” (Bioorg Med Chem Lett, 2001):

What follows are compounds tested against Protein farnesyltransferase (Homo sapiens, UniProt P49354+P49356) (assay: Inhibition of [3H]FPP incorporation into Ha-ras protein by Farnesyltransferase).
Assay type: functional

SMILES | IC50 [nM]
Cc1ccc(C(=O)c2cn(Cc3c[nH]cn3)cc2-c2c3ccccc3cc3ccccc23)cc1 | 470
O=C(c1ccccc1Br)c1cn(Cc2c[nH]cn2)cc1-c1cccc2ccccc12 | 88
Cc1ccc(C(=O)c2cn(Cc3c[nH]cn3)cc2-c2ccc3ccccc3c2)cc1 | 2300
Cc1ccc(C(=O)c2cn(Cc3c[nH]cn3)cc2-c2cccc3ccccc23)cc1 | 65
O=C(c1ccccc1)c1cn(Cc2c[nH]cn2)cc1-c1cccc2ccccc12 | 115

Stronger by IC50, values ahead:

IC50 [nM] | SMILES
32 | O=C(c1ccc(Br)cc1)c1cn(Cc2c[nH]cn2)cc1-c1cccc2ccccc12
16 | O=C(c1ccc(Oc2ccccc2)cc1)c1cn(Cc2c[nH]cn2)cc1-c1cccc2ccccc12
4.6 | Cn1cncc1Cn1cc(C(=O)c2ccc(Oc3ccccc3)cc2)c(-c2cccc3ccccc23)c1
1.4 | CSCC[C@H](NC(=O)c1ccc(CNCc2c[nH]cn2)cc1-c1ccccc1C)C(=O)O
